In US20240125801A1, “MARKER FOR DIAGNOSIS OF NONALCOHOLIC FATTY LIVER DISEASE” (BREXOGEN INC., priority 2021, published 2024):

Tested on: mice model of NASH induced by MC-deficient diet
Test: MCD diet-induced NASH mice model
Format: in vivo, C57BL/6 mice
Conditions: BxC-V37e 400 μg/head i.v. or dulaglutide 2 nmol/kg s.c., 4 weeks, FIG. 4
Procedure: Six-week-old C57BL/6 male wild-type mice were obtained from Koatech Co., Ltd. and fed either chow diet (n=6) or a methionine/choline-deficient (MCD) diet (n=15) for […]. Animal care and procedures were approved in the rodent animal facility area of Knotus Co., Ltd. (Korea; Approval Number: 19-KE-265). After the MCD diet was fed for 18 weeks, 2 nmol/kg dulaglutide (GLP-1 receptor agonist) was subcutaneously injected into mice every other day for 4 weeks, and 400 μg/head BxC-e and BxC-V37e were intravenously injected once a day, three times a week, for 4 weeks. At the end of the experiments, the mice were anesthetized, and their serum and liver tissues were collected. […]
Serum samples were collected 4 weeks after the initiation of BxC-V37e injection, and the following parameters were measured using a blood biochemical analyzer (7180, Hitachi, Japan): ALT (Alanine transaminase), AST (Aspartate transaminase), TG (Triglyceride), glucose, TC (total cholesterol), HDL_C (high-density lipoprotein cholesterol), LDL_C (low-density lipoprotein cholesterol), LDH (lactate dehydrogenase), and GGT (gamma-glutamyltransferase).
Liver tissues were fixed in 10% paraformaldehyde and subjected to general tissue treatment, such as cutting, dehydration, and paraffin embedding. […] Both steatosis and hypertrophy were evaluated at magnifications of 40× to 100×. […]

## dulaglutide
  entire liver morphology (colour): No difference
